The text below walks through data of patent US8734788B2, “Composition and method for treatment of reperfusion injury and tissue damage” (OPSONA Therapeutics Ltd, priority 2007, dated 2014).

Entries after “also recorded” stand apart in the source; their conditions may differ.

The test system of test [1] is myocardial ischemia/reperfusion (I/R) injury in C57BL6 mice. Nature of the test: Infarct size after myocardial ischemia/reperfusion in mice (Evans blue/TTC staining). The format is in vivo. As to conditions: for effect on infarct size (in words): administered 5 minutes prior to reperfusion, versus saline/PBS. On the procedure: Male C57BL6 mice (8-12 weeks old, 25-30 grams of weight) underwent 30 minutes of ischemia followed by 24 hours of reperfusion.
Experimental compounds were administered 5 minutes prior to reperfusion via the tail vein. […] OPN-301 (OPN301) is a murine IgG1 anti-TLR2 antibody (mouse Toll-like Receptor 2 (TLR2) antibody, clone T2.5, HyCult Biotechnology b.v., Cell Sciences, Canton, USA: catalogue number 1054).
Mice were anesthetized with a mixture of […]™ (N-(1-phenethyl-4-piperidyl)-N-phenyl-propanamide) 0.05 mg/kg, DORMICUM™ (Midazolum, 8-chloro-6-(2-fluorophenyl)-1-methyl-4H-imidazo[1,5-a][1,4]benzodiazepine) 5 mg/kg and DOMITOR™ (medetomidine hydrochlorine) 0.5 mg/kg (intraperitoneal injection). Atropine ((8-methyl-8-azabicyclo[3.2.1]oct-3-yl) 3-hydroxy-2-phenylpropanoate) 0.05 mg/kg was subcutaneously administered before coronary ligation. Core body temperature was maintained between 36° C. and 37.5° C. during surgery by continuous monitoring with a rectal thermometer and automatic heating blanket. Mice were […] and ventilated (Harvard Apparatus Inc.) with 100% oxygen. The left anterior descending (LAD) coronary artery was ligated using an 8-0 vicryl suture with a section of polyethylene-10 tubing placed over the LAD.
Ischemia was confirmed by bleaching of the myocardium. Reperfusion was initiated by releasing the ligature and removing the polyethylene-10 tubing. Reperfusion of the endangered myocardium is characterized by typical hyperaemia in the first few minutes. A piece of the loosened suture was left in place in order to determine ischemic area. The chest wall was closed and the animals received subcutaneously […]™ (atipamezole hydrochloride, a sedation reversal agent for DOMITOR™ (medetomidine hydrochlorine)) 2.5 mg/kg, ANEXATE™ (Flumazenil (also known as flumazepil)) 0.5 mg/kg and […]™ (buprenorphine) 0.1 mg/kg.
Infarct Size (IS) is expressed as a percentage of the Area-At-Risk (AAR) and total Left Ventricle (LV). The ratio of AAR/LV is a measure for the extent of myocardial tissue that underwent ischemia and reperfusion (i.e. endangered area). The ratio IS/AAR is an accurate measurement to determine infarct size within endangered myocardium and is the primary endpoint from which the efficacy of treatment is addressed. The secondary endpoint IS/LV ratio is the percentage infarcted area within the total left ventricular wall.
To determine the AAR, the LAD was ligated once again (at the level marked by the suture left in place) and 4% Evans blue dye was injected via the thoracic aorta in a retrograde fashion. Hearts were rapidly explanted, rinsed in 0.9% saline and wrapped in a clear food wrap and frozen at −20° C. for 1 hour. Hearts were then mechanically sliced into five 1 mm cross sections. Heart sections were incubated in 1% triphenyltetrazolium chloride (Sigma-Aldrich) at 37° C. for 15 minutes before placing them in formaldehyde for another 15 minutes. Viable tissue stained red and infarcted tissue appeared white. Heart sections were digitally photographed (CANON EOS 400D) under a microscope (CARL ZEISS™). IS, MR and total LV area were measured using ImageJ software (version 1.34).
All data are expressed as Mean±SD. After skewness±SD and kurtosis±SD confirmed normality, a one-way ANOVA with Bonferroni adjustment (Table 2) and a Dunnett's T test (2 sided) (Table 4). was used to test differences between groups. Kolmogorov-Smirnov test performed if abnormal distribution was suspected (i.e. when kurtosis and skewness values are twice their standard deviations). All statistical analyses were performed using SPSS version 13.0 for Windows (SPSS, Chicago, USA) and p<0.05 was considered significant.

The subject of test [2] is IL-1 production in LPS-stimulated human peripheral blood monocytes. The note with it: cited from earlier work.
The mark [3] stands for this setting: Table 1, 30 min ischemia/24 h reperfusion, i.v. 5 min prior to reperfusion, mAb and IgG 10 mg/kg, SB239063 0.5 mg/kg, n=10.
Setting [4] is: Table 2, Bonferroni, (J) group IgG isotype.
Where [5] appears, read: Table 2, Bonferroni, (J) group PBS.
[6] abbreviates: Table 2, Bonferroni, (J) group exp. mAB.
The mark [7] stands for this setting: Table 3 (amended, saline control set), 30 min ischemia/24 h reperfusion, n=10.
Setting [8] is: Table 5, Dunnett, (J) group Saline.

For the substance “trans-1-(4-Hydroxycyclohexyl)-4-(fluorophenyl)-5-(2-methoxypyrimidin-4-yl) imidazole [SB239063]”, the “IS_AAR (infarct size as percentage of Area At Risk), Mean” value in test [1] (setting [3]) is recorded as 31.4000%. Further, in test [1] (setting [3]), the “IS_LV (infarct size as percentage of total Left Ventricle), Mean” value was 12.0100%. Besides, the “IS_AAR Mean Difference (I-J)” value in test [1] (setting [4]) is “.25400”; in test [1] (setting [5]), −4.185; in test [1] (setting [6]) it was 13.51(*); in test [1] (Table 4, Dunnett, (J) group Saline, n=10 groups), −2.776; in test [1] (setting [8]), −2.776. The “IS_LV Mean Difference (I-J)” value is “−.85200” in test [1] (setting [4]), −5.3 in test [1] (setting [5]), 5.908(*) in test [1] (setting [6]) and −1.74 in test [1] (setting [8]). In test [1] (setting [7]), the “IS/AAR Mean” value turned out to be 31.7250%. The “IS/LV Mean” value in test [1] (setting [7]) is listed as 12.3220%. Moreover, the “effect on infarct size (in words)” value is listed as “did not reduce infarct size” in test [1] and “no reduction of infarct size; also recorded: no difference in infarct size” in test [1] (listed as p38 inhibitor). In test [1] (versus PBS treated mice, not statistically significant (FIG. 7)), the “difference in mean IS/LV” value is given as −26%. In addition, in test [2], the IC50 is 120 nM.

The term IC50 denotes the concentration needed to halve the response being measured.
